Legend:
[1] = target: benzodiazepine receptors; assay: in vitro inhibition of 3H-flunitrazepam binding (displacement test, brain membrane suspension); parameters: unit not given here; settings: 3H-flunitrazepam 1.0 nM, 0° C., rat forebrain, pH 7.1
[2] = system: benzodiazepine receptors; assay: in vivo inhibition of 3H-flunitrazepam binding (forebrain membranes of injected mice); settings: usually subcutaneously, 3H-flunitrazepam i.v. 15 minutes later, killed after a further 20 minutes
Experimental: The ED50 value represents the dose (mg/kg) of a test substance which causes the specific binding of flunitrazepam to benzodiazepine receptors in a living brain to be reduced to 50% of the control value. Such an in vivo test is carried out as follows:
Groups of mice are injected with the test substance of different doses and usually subcutaneously. 15 minutes later ^3 H-flunitrazepam is administered intravenously to the mice, and after a further 20 minutes, the mice are killed. Their forebrain membranes are removed and the radioactivity of these forebrain membranes is measured by scintillation counting. The ED50 value is determined from dose-response curves.

## CCOC(=O)c1ncc2[nH]c3cccc(OC(C)C)c3c2c1COC
[1]
  Inhibition of H^3flunitrazepam binding in vitro IC50: 0.6
[2]
  Inhibition of H^3flunitrazepam binding in vivo ED50: 1.4 mg/kg

## CCOC(=O)c1ncc2[nH]c3cccc(OC4CCC4)c3c2c1COC
[1]
  Inhibition of H^3flunitrazepam binding in vitro IC50: 0.2
[2]
  Inhibition of H^3flunitrazepam binding in vivo ED50: 0.5 mg/kg

## CCOCc1cccc2[nH]c3cnc(C(=O)OCC)c(COC)c3c12 [Example 1, 5-ethoxymethyl-4-methoxymethyl-β-carboline-3-carboxylic acid ethylester]
[1]
  Inhibition of H^3flunitrazepam binding in vitro IC50: 0.4
[2]
  Inhibition of H^3flunitrazepam binding in vivo ED50: 2.4 mg/kg
